Among the data in US20260167623A1 (NIKANG THERAPEUTICS, INC., priority 2022, published 2026) are IC50 values, retold here.

Each structure is given as a SMILES string.

This test has as its target T1, CDK2 (Homo sapiens, UniProt P24941).
T1 construct: High-Throughput Measurement of Cellular Endogenous CDK2; endogenous in cells; host or cells: OVCAR3
Put plainly: Inhibition of CDK2: phospho-Rb (S807/811) HTRF measurement in OVCAR3 cells, 24 h. The format is cell-based. Particulars: 24 h compound treatment, read-out: pRB_OVCAR3_24h. How it is done: Inhibition of CDK2: Phospho-R^b Measurement in Cells
Phosphorylation of RB protein at S807/811 were measured using HTRF phospho-RB cellular kits (Cat #64RBS807PEG) from Cisbio.
On Day 1, OVCAR3 (CDK2 dependent cell line) cells were seeded into 96-well tissue-culture treated plates at 20,000 cells/well in 200 μL and incubated overnight at 37° C. in CO2 atmosphere. On Day 2, the cells were treated with test compounds at concentrations from 0.3 to 10,000 nM using HP D300 digital dispenser. Twenty-four hours after compound treatment, cell culture media is removed by flicking the plate and tapping the plate against clean paper towel. 30 μL 1× lysis buffer was supplemented from the kit was added to each well and the plate was incubated at room temperature on shaker for 30 min. After homogenization by pipetting up and down, 8 μL cell lysate from 96-well cell culture plate was transferred to 384-well small volume white detection plate. 2 μL premixed detection solution was added and the plate was covered with sealer. To prepare the detection solution, d2 conjugated-phospho-RB antibody and Eu-cryptate conjugated phosphor-RB antibody were diluted into detection buffer following manufacturer's instruction. Detection plates were incubated for 4 h at room temperature and read on ClarioStar (BMG Labtech) in TR-FRET mode (665 nM and 620 nM). The TR-FRET ratio (665 nM/620 nM) was plotted against the compound concentration and normalized to DMSO controls. Half maximal inhibition concentration (IC50) values were calculated with a four-parameter logistic fit using GraphPad Prism (version 8; La Jolla, CA).
Background: Time-resolved FRET reads energy transfer from a long-lived donor to a nearby acceptor.

On to `Cn1nc(N2CCC(=O)NC2=O)c2ccc(C3CCN(CCCC4CCN(S(=O)(=O)N5CCC(Nc6ncc(C(F)(F)F)cn6)CC5)CC4)CC3)cc21` [Example 36], for which the IC50 fell in the range of 500 to 2500 nM.
With `O=C1CCC(N2Cc3cc(N4CCC(Oc5cccc(S(=O)(=O)N6CCC(Nc7ncc(C(F)(F)F)cn7)CC6)c5)CC4)ccc3C2=O)C(=O)N1` (stereo not drawn) [Example 41, 3-(1-ox0-5-(4-(3-((4-((5-(trifluoromethyl)-pyrimidin-2-yl)amino)piperidin-1-yl)sulfonyl)phenoxy)piperidin-1-yl)isoindolin-2-yl)piperidine-2,6-dione], the IC50 fell in the range of 100 to 500 nM.
The same measure for `O=C1CCC(N2Cc3cc(N4CCC(N5CC(Oc6cccc(S(=O)(=O)N7CCC(Nc8ncc(C(F)(F)F)cn8)CC7)c6)C5)CC4)ccc3C2=O)C(=O)N1` (stereo not drawn) [Example 45, 3-(1-ox0-5-(4-(3-(3-((4-((5-(trifluoro-methyl)pyrimidin-2-yl)amino)piperidin-1-yl)sulfonyl)phenoxy)azetidin-1-yl)piperidin-1-yl)isoindolin-2-yl)piperidine-2,6-dione]: 100 to 500 nM; for `Cn1nc(N2CCC(=O)NC2=O)c2ccc(N3CC4(CN(Cc5cccc(S(=O)(=O)N6CCC(Nc7ncc(Cl)cn7)CC6)c5)C4)C3)cc21` [Example 46]: 500 to 2500 nM.
The same measure for `O=C1CCC(N2Cc3cc(C4CN(Cc5cccc(S(=O)(=O)N6CCC(Nc7ncc(C(F)(F)F)cn7)CC6)c5)C4)ccc3C2=O)C(=O)N1` (stereo not drawn) [Example 48, 3-(1-oxo-5-(1-(3-((4-((5-(trifluoromethyl)-pyrimidin-2-yl)amino)piperidin-1-yl)sulfonyl)benzyl)azetidin-3-yl)isoindolin-2-yl)piperidine-2,6-dione]: 100 to 500 nM; for `Cn1nc(N2CCC(=O)NC2=O)c2ccc(C3CN(Cc4cccc(S(=O)(=O)N5CCC(Nc6ncc(C(F)(F)F)cn6)CC5)c4)C3)cc21` [Example 49, 1-(1-methyl-6-(1-(3-((4-((5-(trifluoro-methyl)pyrimidin-2-yl)amino)piperidin-1-yl)sulfonyl)benzyl)azetidin-3-yl)-1H-indazol-3-yl)dihydropyrimidine-2,4(1H,3H)-dione]: 500 to 2500 nM; for `O=C1CCC(N2Cc3cc(C4CN(Cc5cccc(S(=O)(=O)N6CCC(Nc7ncc(Cl)cn7)CC6)c5)C4)ccc3C2=O)C(=O)N1` (stereo not drawn) [Example 50, 3-(5-(1-(3-((4-((5-chloropyrimidin-2-yl)amino)piperidin-1-yl)sulfonyl)benzyl)-azetidin-3-yl)-1-oxoisoindolin-2-yl)piperidine-2,6-dione]: 500 to 2500 nM.
For `Cn1nc(N2CCC(=O)NC2=O)c2ccc(N3CCN(CC4CCN(c5cccc(S(=O)(=O)N6CCC(Nc7ncc(C(F)(F)F)cn7)CC6)c5)CC4)CC3)cc21` [Example 51, 1-(1-methyl-6-(4-((1-(3-((4-((5-(trifluoro-methyl)pyrimidin-2-yl)amino)piperidin-1-yl)sulfonyl)phenyl)piperidin-4-yl)methyl)piperazin-1-yl)-1H-indazol-3-yl)dihydropyrimidine-2,4(1H,3H)-dione] the value was 500 to 2500 nM; for `Cn1nc(N2CCC(=O)NC2=O)c2ccc(N3CCN(CC4CCN(c5cccc(S(=O)(=O)N6CCC(Nc7ncc(Cl)cn7)CC6)c5)CC4)CC3)cc21` [Example 52, 1-(6-(4-((1-(3-((4-((5-chloropyrimidin-2-yl)amino)piperidin-1-yl)sulfonyl)phenyl)-piperidin-4-yl)methyl)piperazin-1-yl)-1-methyl-1H-indazol-3-yl)dihydropyrimidine-2,4(1H,3H)-dione], 500 to 2500 nM.
`Cn1nc(N2CCC(=O)NC2=O)c2ccc(C3CN(Cc4cccc(S(=O)(=O)N5CCC(Nc6ncc(Cl)cn6)CC5)c4)C3)cc21` [Example 56, 1-(6-(1-(3-((4-((5-chloropyrimidin-2-yl)amino)piperidin-1-yl)sulfonyl)benzyl)-azetidin-3-yl)-1-methyl-1H-indazol-3-yl)dihydropyrimidine-2,4(1H,3H)-dione]: the IC50 lay in the range of 500 to 2500 nM.
For `COc1cnc(NC2CCN(S(=O)(=O)c3cccc(CN4CCC(c5ccc6c(N7CCC(=O)NC7=O)nn(C)c6c5)CC4)c3)CC2)nc1` [Example 57, 1-(6-(1-(3-((4-((5-methoxypyrimidin-2-yl)amino)piperidin-1-yl)sulfonyl)benzyl)-piperidin-4-yl)-1-methyl-1H-indazol-3-yl)dihydropyrimidine-2,4(1H,3H)-dione] the value was 500 to 2500 nM.
The same measure for `Cn1nc(N2CCC(=O)NC2=O)c2ccc(C3CCN(Cc4cccc(S(=O)(=O)[C@H]5CC[C@H](Nc6ncc(Cl)cn6)CC5)c4)CC3)cc21` [Example 59, 1-(6-(1-(3-(((1r,4r)-4-((5-chloropyrimidin-2-yl)amino)cyclohexyl)sulfonyl)benzyl)piperidin-4-yl)-1-methyl-1H-indazol-3-yl)dihydropyrimidine-2,4(1H,3H)-dione]: above 2500 nM; for `Cc1cnc(NC2CCN(S(=O)(=O)c3cccc(CN4CCC(c5ccc6c(N7CCC(=O)NC7=O)nn(C)c6c5)CC4)c3)CC2)nc1` [Example 60, 1-(1-methyl-6-(1-(3-((4-((5-methyl-pyrimidin-2-yl)amino)piperidin-1-yl)sulfonyl)benzyl)piperidin-4-yl)-1H-indazol-3-yl)dihydropyrimidine-2,4(1H,3H)-dione]: 500 to 2500 nM; for `O=C1CCN(c2nn(CC(F)(F)F)c3cc(N4CCN(Cc5cccc(S(=O)(=O)N6CCC(Nc7ncc(Cl)cn7)CC6)c5)CC4)ccc23)C(=O)N1` [Example 62, 1-(6-(4-(3-((4-((5-chloropyrimidin-2-yl)amino)piperidin-1-yl)sulfonyl)benzyl)-piperazin-1-yl)-1-(2,2,2-trifluoroethyl)-1H-indazol-3-yl)dihydropyrimidine-2,4(1H,3H)-dione]: 100 to 500 nM.
The same measure for `Cn1nc(N2CCC(=O)NC2=O)c2ccc(C3CCN(Cc4ccc(S(=O)(=O)N5CCC(Nc6ncc(Cl)cn6)CC5)cc4)CC3)cc21` [Example 63, 1-(6-(1-(4-((4-((5-chloropyrimidin-2-yl)amino)piperidin-1-yl)sulfonyl)benzyl)-piperidin-4-yl)-1-methyl-1H-indazol-3-yl)dihydropyrimidine-2,4(1H,3H)-dione]: 1 to 100 nM.
Regarding `Cn1nc(N2CCC(=O)NC2=O)c2ccc(N3CCN(Cc4cccc(S(=O)(=O)[C@H]5CC[C@H](Nc6ncc(Cl)cn6)CC5)c4)CC3)cc21` [Example 67, 1-(6-(4-(3-(((1r,4r)-4-((5-chloropyrimidin-2-yl)amino)cyclohexyl)sulfonyl)benzyl)piperazin-1-yl)-1-methyl-1H-indazol-3-yl)dihydropyrimidine-2,4(1H,3H)-dione], the IC50 is above 2500 nM.
`CN(C)c1cnc(NC2CCN(S(=O)(=O)c3cccc(CN4CCC(c5ccc6c(N7CCC(=O)NC7=O)nn(C)c6c5)CC4)c3)CC2)nc1` [Example 70, 1-(6-(1-(3-((4-((5-(dimethylamino)-pyrimidin-2-yl)amino)piperidin-1-yl)-sulfonyl)benzyl)piperidin-4-yl)-1-methyl-1H-indazol-3-yl)dihydropyrimidine-2,4(1H,3H)-dione]: the IC50 was above 2500 nM.
For `O=C1CCC(N2C(=O)c3cc(F)c(N4CCN(Cc5cccc(S(=O)(=O)N6CCC(Nc7ncc(C(F)(F)F)cn7)CC6)c5)CC4)cc3C2=O)C(=O)N1` (stereo not drawn) [Example 72, 2-(2,6-dioxopiperidin-3-yl)-5-fluoro-6-(4-(3-((4-((5-(trifluoromethyl)pyrimidin-2-yl)amino)piperidin-1-yl)sulfonyl)benzyl)-piperazin-1-yl)isoindoline-1,3-dione] the value was 500 to 2500 nM.
